Experimental data published in patent publication US20040038861A1, “Methods and compositions for normalizing lipid levels in mammalian tissues” (priority 2001, published 2004).
Each block holds one molecule with its values, some of them ahead of it. Where no end group is shown, it is not given here.

How the values were obtained:
soleus muscle [1] = assay: cAMP content of isolated soleus muscle from normal fed rats; assay type: cell-based, rat; details: for cAMP content in soleus muscles: 1 μM isoproterenol
Method: (§1) Soleus muscle preparation. All experiments were performed according to protocols approved by the Institutional Animal Ethics Committee. 5-6 week-old male Wistar rats (160 g) were kept on a 12:12-h light/dark cycle, and fed and watered ad libitum. Animals were anaesthetised with 50 mg/kg Nembutal (pentobarbitone sodium), then sacrificed by cervical dislocation. Soleus muscles were dissected under oxygenated KHB (118 mM NaCl, 4.75 mM KCl, 1.2 mM MgSO4, 24.8 mM NaHCO3, 1.2 mM KH2PO4, 2.54 mM CaCl2, 10 mM glucose, pH 7.4) and teased into halves, then incubated as described below.
(§2) For the measurement of cAMP in muscle, isolated soleus strips were incubated with stated concentrations of peptides, then lyophilized and deproteinized. Each strip was placed in 400 μl of 0.5 M HClO4 with 5 mM EDTA (phosphodiesterase inhibitor) and sonicated three times in 20 s bursts. Tubes were heated for 3-5 min in boiling water to coagulate protein, then centrifuged (12,000 g, 4° C., 2 min). Supernatant (300 μl) was taken and the pH adjusted to 7.0 with 75 μl of 2 M NH4OH. The samples were refrigerated (4° C., 2 h) to precipitate proteins, then centrifuged under the same conditions as above and 50 μl taken for cAMP measurement.

soleus muscle [2] = assay: Masoprocol effect on CGRP1-evoked NEFA and triglyceride contents in soleus muscle from high fat-fed rats; assay type: cell-based, rat; details: 50 μM masoprocol with 100 nM or 1 pM CGRP1
Text: Masoprocol, (nordihydroguaiaretic acid), is a lipoxygenase inhibitor, that has been identified as the active component of Creosote bush extracts. Oral administration of this compound lowers serum NEFA and triglyceride concentrations in rats with fructose-induced hypertriglyceridemia (Gowri et al. 2000, Am. J. Physiol. 279: E593-E600), and decrease blood glucose and triglyceride concentrations in a fat-fed/streptozotocin rat model (Reed et al. 1999, Diabetologia 42: 102-106).

[3] = target: T1, murine ramp 1/C1ins− receptor (Mus musculus, UniProt Q60755+Q9WTJ5); assay: Radioligand binding and displacement of [3H]amylin in L6 myoblasts co-transfected with murine ramp 1 and C1ins−; details: displacement of [3H]amylin, FIG. 9A
T1 construct: expressed in transfected cells; host or cells: L6 myoblasts (ATCC), transient co-transfection of pcDNA3.1 plasmids
T1 sequence (Q60755 42-496 isoform Q60755-2 limits assumed): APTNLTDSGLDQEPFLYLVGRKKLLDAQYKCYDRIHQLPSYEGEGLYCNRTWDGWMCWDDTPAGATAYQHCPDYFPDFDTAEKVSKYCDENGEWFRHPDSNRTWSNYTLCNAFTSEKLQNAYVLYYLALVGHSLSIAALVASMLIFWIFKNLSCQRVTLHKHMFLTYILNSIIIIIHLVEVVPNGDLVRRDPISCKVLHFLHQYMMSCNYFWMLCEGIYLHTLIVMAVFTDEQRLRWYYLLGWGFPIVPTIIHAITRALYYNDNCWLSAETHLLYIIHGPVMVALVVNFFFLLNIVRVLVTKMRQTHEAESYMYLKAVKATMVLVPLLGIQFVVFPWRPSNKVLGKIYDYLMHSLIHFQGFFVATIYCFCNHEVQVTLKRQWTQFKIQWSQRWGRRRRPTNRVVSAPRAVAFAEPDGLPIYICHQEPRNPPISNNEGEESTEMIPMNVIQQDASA
T1 sequence (Q9WTJ5 27-148 partner): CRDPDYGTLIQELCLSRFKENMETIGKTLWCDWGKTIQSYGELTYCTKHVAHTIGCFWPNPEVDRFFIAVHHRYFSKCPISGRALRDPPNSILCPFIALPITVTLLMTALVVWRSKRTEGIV
Method: Transfection of L6 myoblasts and cos-7 cells, and analysis of radioligand binding. L6 myoblasts and cos-7 cells were obtained from ATCC. Both cell lines were cultered in Dulbecco's modified Eagle's medium (DMEM; Gibco/BRL, high glucose) supplemented with 10% fetal calf serum (Gibco/BRL, Gaithersburg, Md.), L-glutamine (2 mM), penicillin (100 U/ml; Sigma), streptomycin (100 mg/ml; Sigma), saline (0.85%), under 5% CO2/95% air at 37° C. The day before transfection, cells were trypsinised and seeded into six-well plates at a density of 2.9×10^5 cells/well in the same medium. For transfection, cells were incubated with a mixture comprising 1 μg each of Qiagen-purified (Qiagen, Valencia, Calif.) plasmids containing C1ins− with either ramp 1 or ramp 3, and Fugene reagent (6 μl; Boehringer Mannheim) in Opti-Mem I medium (Gibco/BRL). The complex was added with serum to cells, which were incubated for a further 48 h.
For binding experiments, radioligand (either alone or together with stated final concentrations of non-radiolabeled ligands) was dissolved in DMEM containing 0.1% BSA (binding buffer) for 1 h before binding experiments were performed. […] Cells were washed twice with this buffer, then incubated with 1 ml of the same plus radioligand for 4 h at room temperature (21° C.).

soleus muscle [4] = assay: Lipid metabolites (free fatty acid, glycerol, triglyceride; enzymatic analysis) in isolated soleus muscle from normally fed rats; assay type: cell-based, rat; details: 1 h; for free fatty acid content in conjunction with 100 nM CGRP: 10 μM antagonist or maximally stimulating insulin (23.7 nM) + 100 nM CGRP, CGRP alone 334±52; for free fatty acid content in conjunction with 100 nM amylin: 10 μM antagonist or maximally stimulating insulin (23.7 nM) + 100 nM amylin, amylin alone 216±26
soleus muscle [5] = assay: cAMP content of isolated soleus muscle from high fat-fed rats; assay type: cell-based, rat
Method: as §1, §2

Wistar rats [6] = assay: Serum hormones and blood metabolites following acute CGRP infusion in anaesthetised normal-fed rats; assay type: in vivo, rat; details: end vs commencement of infusion
Method: (§3) Surgery. Experiments were performed on male Wistar rats. Animals were randomly assigned to experimental groups as outlined below. Induction and maintenance of surgical anesthesia was by 3-5% halothane and 2L oxygen. An initial blood sample was taken from a tail artery for measurement of baseline levels of blood glucose and lactate, electrolyte, acid base and oxygen status and serum levels of free fatty acids, triglyceride and cholesterol. Immediately following this, the trachea was cannulated and the animal ventilated at 60-70 breaths.min-1 with air supplemented with O2. The respiratory rate and end-tidal pressure (10-15 cmH2O) were adjusted to maintain end-tidal CO2 at 35-40 mmHg. Body temperature was maintained at 37° C. throughout surgery and the experiment by a heating pad. The carotid artery and jugular vein were cannulated with a solid-state blood pressure transducer and a saline filled PE 50 catheter respectively. For the antagonist infusion studies, surgery was similar to above with the alteration being that both the carotid artery and jugular vein were cannulated with saline filled PE 50 catheters. Fluids (saline or hormone dissolved in saline) were delivered to the jugular vein with a Y-connector to join the two lines. The carotid artery line was connected to a blood pressure transducer. Blood samples were taken from this line at time zero (baseline reading), 30 minutes and every 20 minutes until the end of the experiment at 90 minutes.
Infusion. […] Blood glucose measurements were taken from tail capillaries at 5-minute intervals throughout the duration of the experiment. At the end of the infusion a terminal blood sample was taken by cardiac puncture and analysed as per the basal sample and also for various metabolites and hormones. Serum and plasma samples were stored at −80° C. until future analysis. Animals were killed by cervical dislocation and harvested tissues (brain, liver, kidney, soleus muscle, extensor digitorum longus muscle, left ventricle, retroperitoneal and epididymal fat pads) snap frozen in liquid N2 and stored at −80° C. until future analysis.

Wistar rats [7] = assay: Tissue free fatty acid and triglyceride content following infusion in normal-fed rats; assay type: in vivo, rat
Method: as §3
Infusion. […] Blood glucose measurements were taken from tail capillaries at 5-minute intervals throughout the duration of the experiment. At the end of the infusion a terminal blood sample was taken by cardiac puncture and analysed as per the basal sample and also for various metabolites and hormones. Serum and plasma samples were stored at −80° C. until future analysis. Animals were killed by cervical dislocation and harvested tissues (brain, liver, kidney, soleus muscle, extensor digitorum longus muscle, left ventricle, retroperitoneal and epididymal fat pads) snap frozen in liquid N2 and stored at −80° C. until future analysis. For the antagonist studies, the protocols was the same as above with the following changes: Infusion was a combination of antagonist, CGRP or saline.

soleus muscle [8] = assay: Glucose transport (2-deoxy-D-glucose uptake) in incubated soleus muscle strips; assay type: cell-based, rat
Method: as §1
Determination of rates of glucose transport in incubated soleus muscle strips. 4-5 muscle strips were added to each flask, which contained 10 ml DMEM. They were pre-incubated with hormones as indicated for 30 min at 30° C. in a shaking water bath, after which 5 μl of 2[^3H]DOG (0.5 μCi/ml) and 5 μl D[^14C(U)]sorbitol (0.05 μCi/ml) were added, then incubated for another 30 min; RIA grade BSA was added to 0.9% (w/v) to prevent non-specific binding of insulin to flasks. Following incubation, muscle strips were transferred to ice-cold KHB for 5-10 min to remove excess [^3H]DOG and [^14C]sorbitol. They were then blotted, frozen, tendons excised, then lyophilized for a further 48 h. Muscles were then weighed, transferred to scintillation vials and digested with 0.5 ml 1 M NaOH at 60° C. for 1 h. Scintillation fluid (4 ml) was added to each vial, and samples counted in a Beckman liquid scintillation spectrometer, preset to count ^14C and ^3H channels simultaneously. The amount of each isotope present in the samples was determined and used to calculate the extracellular space and the intracellular concentration of [^3H]DOG. The accumulation of intracellular [^3H]DOG, a measure of muscle glucose uptake, was calculated by subtracting the concentration of [^3H]DOG in the extracellular space from the corresponding total muscle [^3H]DOG]; extracellular [^3H]DOG was quantified by measuring the muscle concentration of [^14C]sorbitol.
Data analysis. One way ANOVA, Dunnett's Multiple Comparisons Test, and unpaired Student's t-tests were used to calculate the statistical significance of differences, as appropriate. Dose-response curves were fitted to a sigmoidal dose-response algorithm, as follows: Y=minimum+(maximum−minimum)/([…] log ^(EC50^−X), for 2-DOG-uptake; and by a four parameter logistic model, Y=minimum+(maximum−minimum)/(1+10 log ^(EC50^−X)Hill-Coefficient) for total glycogen and [^14C]glucose incorporation. Calculations were performed using Prism v2.0 (GraphPad Software, San Diego, Calif.) to derive values for half-maximal effective concentration (EC50). Displacement curves derived for competition of bound radioligand with cold ligand in transfected cells were calculated according to a one site competition fit using Prism v2.0.

[9] = target: metabolic amylin receptor

Molecule: CNCC(O)c1ccc(O)c(O)c1 (stereo not shown) [adrenaline]
cAMP content, agonist alone (soleus muscle [1]; normal fed, 100 nM CGRP or adrenaline, control 3.9±0.2): 9.6 ± 0.7 pmol/mg

Molecule: CC(C)NCC(O)c1ccc(O)c(O)c1 (stereo not shown) [isoproterenol]
cAMP content in soleus muscles (soleus muscle [1]; experiment of FIG. 13A): 3.5 ± 0.2 pmol/mg
cAMP content in soleus muscles (soleus muscle [1]; experiment of FIG. 13B): 3.8 ± 0.2 pmol/mg

Molecule: CC(Cc1ccc(O)c(O)c1)C(C)Cc1ccc(O)c(O)c1 (stereo not shown) [masoprocol, nordihydroguaiaretic acid]
effect on CGRP1-evoked NEFA elevation (soleus muscle [2]): completely reversed NEFA elevation
effect on CGRP1-evoked decrements in triglyceride content (soleus muscle [2]): completely reversed decrements in soleus triglyceride content

Molecule: Human adrenomedullin
competition with amylin for binding to co-transfected cells [3]: competed only very weakly

Molecule: human CGRP1-(8-37) [CGRP-(8-37)]
free fatty acid concentration in conjunction with 1 pM CGRP (soleus muscle [4]; 100 pM antagonist + 1 pM CGRP, CGRP alone 166±18): 68±8 nmol/g
free fatty acid content in conjunction with 100 nM CGRP (soleus muscle [4]): 90 ± 7 nmol/g
free fatty acid content in conjunction with 100 nM amylin (soleus muscle [4]): 65 ± 8 nmol/g
cAMP content with 100 nM CGRP1 plus antagonist (soleus muscle [5]; 10-fold molar excess of antagonist): 5.4 ± 0.4 pmol/mg
cAMP content with 1 pM CGRP plus antagonist (soleus muscle [5]; 10-molar excess of antagonist, CGRP alone 8.6±0.4): 4.7±0.5 pmol/mg
cAMP content with 100 nM CGRP plus antagonist (soleus muscle [1]; normal fed, 10-fold molar excess of antagonist, CGRP alone 6.9±0.8): 4.8 ± 0.2 pmol/mg
Change in [serum] Triglyceride (Wistar rats [6]; CGRP 60 min, CGRP-(8-37) 90 min, control 0.2): 0.9 mmol/L
Change in [serum] FFA (Wistar rats [6]; control −0.1): -0.3 mmol/L
Change in Lactate (Wistar rats [6]; heparinised whole blood, control 0.3): 0.02 mmol/L
FFA content, Heart (Wistar rats [7]; CGRP 100 pmol/kg/min 1 h, CGRP-(8-37) 10 nmol/kg/min 90 minutes, control 0.8 ± 0.2): 0.9 ± 0.2 µmol/g
FFA content, Liver (Wistar rats [7]; same infusions, control 0.1 ± 0.01): 0.06 ± 0.04 µmol/g
FFA content, Soleus Muscle (Wistar rats [7]; same infusions, control 0.2 ± 0.02): 0.1 ± 0.02 µmol/g
FFA content, Kidney (Wistar rats [7]; same infusions, control 0.8 ± 0.1): 0.8 ± 0.1 µmol/g
FFA content, Epi Adipose (Wistar rats [7]; same infusions, control 2.1 ± 0.5): 2.2 ± 0.6 µmol/g
triglyceride content, Kidney (Wistar rats [7]; same infusions, control 2.8 ± 0.5): 2.5 ± 0.4 µmol/g
triglyceride content, Heart (Wistar rats [7]; same infusions, control 2.9 ± 0.4): 3.1 ± 0.4 µmol/g
triglyceride content, Soleus Muscle (Wistar rats [7]; same infusions, control 3.7 ± 0.4): 4.3 ± 0.4 µmol/g
triglyceride content, Liver (Wistar rats [7]; same infusions, control 4.3 ± 0.3): 5.8 ± 0.4 µmol/g
triglyceride content, Epi Adipose (Wistar rats [7]; same infusions, control 5.1 ± 1.2): 4.9 ± 1 µmol/g

Molecule: insulin: Soluble human insulin (Actrapid 100U, Novo Nordisk)
free fatty acid content in conjunction with 100 nM CGRP (soleus muscle [4]): 107 ± 17 nmol/g
free fatty acid content in conjunction with 100 nM amylin (soleus muscle [4]): 100 ± 11 nmol/g
intramuscular free fatty acid content (soleus muscle [4]; soleus, normally fed rats, 100 nM amylin or CGRP-1, 4.4 μM norepinephrine, 23.7 nM insulin, control 78±21): 67 ± 9 nmol/g
2-DOG-uptake (soleus muscle [8]; hormone alone (amylin 10 nM; insulin 23.7 nM), basal 8.8 ± 0.9): 28.4 ± 6.4 nmol/g dry-wt muscle/min
stimulation of glucose uptake (soleus muscle [8]; insulin 23.7 nM vs basal): 3.2 fold

EC50, total glycogen content, with insulin (23.7 nM) [9]: 4.3 nM
Molecule: rat CGRP-1 (ligand; unit assumed)

EC50, total glycogen content, with insulin (23.7 nM) [9]: 8.1 nM
Molecule: rat amylin (from UniProt P12969) (ligand; unit assumed)

Molecule: rat calcitonin (CGNLSTCMLGTYTQDLNKFHTFPQTSIGVGAP; ends and bridges not checked; cysteine pairing not given here) [calcitonin family peptide from Bachem]
competition with amylin for binding to co-transfected cells [3]: competed only very weakly

EC50, total glycogen content, with insulin (23.7 nM) [9]: 0.6 nM
Molecule: salmon calcitonin (from UniProt P01263) (ligand; unit assumed)

EC50, ^14C-glucose incorporation into glycogen, with insulin (23.7 nM) [9]: 0.9 nM
EC50, ^14C-glucose incorporation into glycogen, without insulin [9]: 0.1 nM
EC50, total glycogen content, without insulin [9]: 1.7 nM
Molecule: CSNLSTCVLGKLSQELHKLQTYPRTNTGSGTP (ligand, ends and bridges not checked; cysteine pairing not given here) [salmon calcitonin]
